{"source": "patent US20120009613A1", "about": "“PHARMACEUTICAL COMPOSITION FOR MODULATING THE ACTIVITY OF A NOVEL TRIGLYCERIDE HYDROLASE” (Karl-Franzens-Universitat Graz, priority 2004, published 2012)", "molecules": {"B1": {"name": "hCGI-58: human CGI-58 expressed in COS-7 cells (protein, UniProt Q8WTS1 2-349, looked up)", "1-acylglycerol-3-phosphate …": "AAEEEEVDSADTGERSGWLTGWLPTWCPTSISHLKEAEEKMLKCVPCTYKKEPVRISNGNKIWTLKFSHNISNKTPLVLLHGFGGGLGLWALNFGDLCTNRPVYAFDLLGFGRSSRPRFDSDAEEVENQFVESIEEWRCALGLDKMILLGHNLGGFLAAAYSLKYPSRVNHLILVEPWGFPERPDLADQDRPIPVWIRALGAALTPFNPLAGLRIAGPFGLSLVQRLRPDFKRKYSSMFEDDTVTEYIYHCNVQTPSGETAFKNMTIPYGWAKRPMLQRIGKMHPDIPVSVIFGARSCIDGNSGTSIQSLRPHSYVKTIAILGAGHYVYADQPEEFNQKVKEICDTVD"}}, "type_in_all_cases": "biochemical", "key": {"ATGL": {"target": "T1, ATGL (Mus musculus, UniProt Q8BJ56)", "T1 construct": "a recombinant adenovirus encoding the His-tagged full length mouse ATGL cDNA was constructed; expressed in transfected cells; host or cells: HepG2 cells infected with recombinant adenovirus; cytosolic fraction", "T1 sequence (Q8BJ56 1-486)": "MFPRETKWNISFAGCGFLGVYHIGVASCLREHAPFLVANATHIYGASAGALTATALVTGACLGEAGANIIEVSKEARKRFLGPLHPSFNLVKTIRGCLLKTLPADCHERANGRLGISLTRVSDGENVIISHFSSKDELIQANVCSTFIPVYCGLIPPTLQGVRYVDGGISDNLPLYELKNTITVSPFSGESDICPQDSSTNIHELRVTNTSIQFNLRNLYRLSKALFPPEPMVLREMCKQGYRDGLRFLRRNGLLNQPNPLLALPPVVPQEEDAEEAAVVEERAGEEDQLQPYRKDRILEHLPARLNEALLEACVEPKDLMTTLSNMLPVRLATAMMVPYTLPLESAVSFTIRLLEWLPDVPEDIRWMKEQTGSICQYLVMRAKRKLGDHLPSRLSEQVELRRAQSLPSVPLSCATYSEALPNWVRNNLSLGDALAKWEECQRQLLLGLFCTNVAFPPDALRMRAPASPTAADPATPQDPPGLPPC", "test": "TG hydrolase activity assay, cytosolic fractions of HepG2 cells infected with adenovirus coding for His-tagged ATGL, radiolabeled triolein substrate", "method": "(§1) Neutral TG lipase activity was measured with triolein as substrate containing [9,10-3H(N)]-triolein (NEN Life Science Products) as radioactive tracer. The substrate for TG lipase activity was prepared by sonication (Virsonic 475) exactly as describeded by Holm et al. (30). Cells were disrupted on ice in lysis buffer (0.25 M sucrose, 1 mM EDTA, 1 mM dithiothreitol, 20 μg/ml leupeptin, 2 μg/ml antipain, 1 μg/ml pepstatin, pH 7) by sonication (Virsonic 475). The cytosolic infranatants were obtained after centrifugation at […], at 4° C. for 60 min. The reaction was performed in a water bath at 37° C. for 60 min with 0.1 ml substrate and 0.1 ml infranatant. The reaction was terminated by adding 3.25 ml of methanol/chloroform/heptane (10:9:7) and 1 ml of 0.1 M potassium carbonate, 0.1 M boric acid, pH 10.5. After centrifugation (800 g, 20 min) the radioactivity in 1 ml of the upper phase was determined by liquid scintillation counting.\nA recombinant adenovirus coding for His-tagged ATGL or HSL was used to infect HepG2 cells as described above. For activity assays, the cytosolic fractions of the cells were incubated with a substrate containing radiolabeled triolein in the absence (control) or in the presence of 50 μg/ml orlistat. It can be seen from FIG. 4 that addition of orlistat decreased in ATGL activity by 98%. […]"}, "HSL": {"target": "T2, HSL (Mus musculus, UniProt P54310)", "T2 construct": "His-tag; expressed in transfected cells; host or cells: HepG2 cells infected with recombinant adenovirus; cytosolic fraction", "T2 sequence (P54310 1-759)": "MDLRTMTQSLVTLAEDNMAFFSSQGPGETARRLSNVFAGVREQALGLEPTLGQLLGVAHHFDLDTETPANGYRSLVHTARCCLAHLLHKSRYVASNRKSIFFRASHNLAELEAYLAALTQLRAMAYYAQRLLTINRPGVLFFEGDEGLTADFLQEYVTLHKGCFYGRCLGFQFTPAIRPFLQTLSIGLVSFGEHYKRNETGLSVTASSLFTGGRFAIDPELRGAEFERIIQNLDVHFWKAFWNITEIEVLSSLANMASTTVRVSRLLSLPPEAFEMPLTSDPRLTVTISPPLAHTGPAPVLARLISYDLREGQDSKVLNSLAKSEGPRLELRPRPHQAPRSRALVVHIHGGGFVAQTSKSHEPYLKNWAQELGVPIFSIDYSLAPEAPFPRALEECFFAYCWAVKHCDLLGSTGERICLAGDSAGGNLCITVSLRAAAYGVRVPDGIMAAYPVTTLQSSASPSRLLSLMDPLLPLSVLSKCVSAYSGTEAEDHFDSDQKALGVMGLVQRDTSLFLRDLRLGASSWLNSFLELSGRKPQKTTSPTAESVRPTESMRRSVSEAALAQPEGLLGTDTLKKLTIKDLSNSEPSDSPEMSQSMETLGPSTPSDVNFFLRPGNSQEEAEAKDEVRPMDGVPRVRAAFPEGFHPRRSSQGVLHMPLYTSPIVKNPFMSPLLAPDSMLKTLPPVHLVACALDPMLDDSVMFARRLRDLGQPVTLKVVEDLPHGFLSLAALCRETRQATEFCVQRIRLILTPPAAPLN", "test": "TG hydrolase activity assay, cytosolic fractions of HepG2 cells infected with adenovirus coding for His-tagged HSL, radiolabeled triolein substrate", "settings": "1M KCl vs absence (control), FIG. 5", "method": "as §1\nA recombinant adenovirus coding for His-tagged ATGL or HSL was used to infect HepG2 cells. The infection led to a 7- and 12-fold increase in TG hydrolase activity for HSL and ATGL, respectively, compared to LacZ-infected cells. For activity assays, the cytosolic fractions of the cells were incubated with a substrate containing radiolabeled triolein in the absence (control) or in the presence of the indicated salt concentrations."}, "human ATGL (hATGL)": {"target": "T3, human ATGL (hATGL) (Homo sapiens, UniProt Q96AD5)", "T3 construct": "The PCR products, containing the complete open reading frame, were ligated; expressed in transfected cells; host or cells: COS-7, transient transfection; cytoplasmic extracts", "T3 sequence (Q96AD5 2-504)": "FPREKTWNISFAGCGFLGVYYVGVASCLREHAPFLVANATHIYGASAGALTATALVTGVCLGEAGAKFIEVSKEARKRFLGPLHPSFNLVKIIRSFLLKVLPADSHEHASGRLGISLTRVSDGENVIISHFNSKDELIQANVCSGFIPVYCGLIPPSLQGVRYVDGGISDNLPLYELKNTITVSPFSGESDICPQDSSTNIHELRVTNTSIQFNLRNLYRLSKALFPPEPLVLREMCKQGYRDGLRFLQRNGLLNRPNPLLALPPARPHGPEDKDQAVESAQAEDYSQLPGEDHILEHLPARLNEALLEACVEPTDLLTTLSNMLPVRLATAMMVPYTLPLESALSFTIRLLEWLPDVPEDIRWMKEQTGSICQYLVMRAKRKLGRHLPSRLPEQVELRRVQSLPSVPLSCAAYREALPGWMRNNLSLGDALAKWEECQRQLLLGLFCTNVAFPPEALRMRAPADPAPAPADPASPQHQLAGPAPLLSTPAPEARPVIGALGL", "T3 sequence (Q8WTS1 1-349 partner)": "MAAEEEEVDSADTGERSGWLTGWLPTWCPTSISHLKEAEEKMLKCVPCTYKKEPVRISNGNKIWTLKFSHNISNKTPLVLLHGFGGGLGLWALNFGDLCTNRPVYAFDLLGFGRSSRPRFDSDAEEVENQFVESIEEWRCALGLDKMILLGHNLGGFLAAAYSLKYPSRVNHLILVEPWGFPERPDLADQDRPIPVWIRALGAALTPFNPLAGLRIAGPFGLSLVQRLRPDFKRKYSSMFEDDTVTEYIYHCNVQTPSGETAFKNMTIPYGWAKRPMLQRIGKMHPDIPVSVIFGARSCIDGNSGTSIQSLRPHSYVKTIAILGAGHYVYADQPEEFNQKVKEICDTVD", "test": "TGH activity assay of hATGL with hCGI-58 expressed in COS-7 cells", "settings": "human proteins; dose-dependent; FIG. 6f", "source_text": "In comparison, transfection of cells with ATGL and HSL increased TGH activities 4- and 9-fold, respectively. In order to investigate whether the effect of CGI-58 is due to endogenous TGH activity of CGI-58 or if the protein affects the activity of other lipases, the extracts of CGI-58 and ATGL or HSL-expressing cells were mixed together and subjected to TGH activity determinations (FIG. 6c). […] The activation of ATGL by CGI-58 could also be monitored on the molecular level using the fluorescently labeled lipase-inhibitor NBD-snl TG. By mimicking a TG molecule, this inhibitor covalently binds to active lipases. […]\nExpression ofrecombinant proteins in cultured cells for CGI-58 investigations—Monkey embryonic kidney cells (COS-7, ATCC CRL-1651) were maintained in Dulbecco's minimal essential medium (DMEM) (Gibco, Invitrogen life technologies, Carlsbad, Calif.) containing 10% fetal calf serum (FCS) (Sigma-Aldrich Chemie GmbH) and antibiotics at 37° C. in humidified air (89-91% saturation) and 5% C02. […] Cells were analyzed two days after transfection.\nFIG. 6. […] (a) His-tagged proteins were detected in cytoplasmic extracts of transfected cells by Western blotting using a monoclonal anti-His antibody. (b) TGH activity of cytoplasmic extracts of transfected cells was determined using a radiolabeled triolein substrate. […] The molar ratio ATGL/CGI-58 was determined as described in (d)."}}, "data": [{"molecule": "[Cl-].[K+]", "note": "[KCl, potassium chloride]", "values": [{"measurement": "change in ATGL activity (stimulated)", "setting": "ATGL; 1M KCl vs absence (control), FIG. 5", "value": "+84%"}, {"measurement": "change in HSL activity", "setting": "HSL", "value": "−68", "unit": "%"}]}, {"molecule": "CCCCCCCCCCC[C@@H](C[C@@H]1OC(=O)[C@H]1CCCCCC)OC(=O)[C@H](CC(C)C)NC=O", "note": "[orlistat]", "values": [{"measurement": "decrease in ATGL activity", "setting": "ATGL; 50 μg/ml orlistat vs absence (control), FIG. 4", "value": 98, "unit": "%"}]}, {"molecule": "B1", "values": [{"measurement": "magnitude of the maximal effect on ATGL activation", "setting": "human ATGL (hATGL)", "value": 6, "unit": "fold"}]}]}
